Data published in patent US12679848B2, “Plasma kallikrein inhibitors” (Merck Sharp & Dohme LLC, priority 2020, dated 2026).

Assays:
human factor XIa = human factor XIa (Homo sapiens, UniProt P03951); test: Factor XIa Assay; type: biochemical; details: human factor XIa 0.04 nM, substrate GPR-AFC, 30 min pre-incubation, 25° C., pH 7.4; read-out: FXIa IC50
Human plasma kallikrein = molecular target: T1, Human plasma kallikrein (Homo sapiens, UniProt P03952); test: Plasma Kallikrein Assay; type: biochemical; details: purified Human plasma kallikrein 0.5 nM, substrate Acetyl-K-P-R-AFC, HEPES pH 7.4; read-out: PKal IC50
T1 construct: yields a heavy chain (371 amino acids) and a light chain (248 amino acids); The active site of plasma kallikrein is contained in the light chain; purchased Enzyme Research Laboratories
Outline: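 Purified human plasma kallikrein at 0.5 nM final with substrate Acetyl-K-P-R-AFC at […], in 50 mM HEPES pH 7.4, 150 mM NaCl, 5 mM CaCl2, 0.1% PEG 8000, at rt or 37° C after enzyme-inhibitor equilibration. IC50 from four-parameter logistic fit of fluorescence rate; Ki via Cheng-Prusoff.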

human factor XIa, sequence (P03951 388-625 limits assumed): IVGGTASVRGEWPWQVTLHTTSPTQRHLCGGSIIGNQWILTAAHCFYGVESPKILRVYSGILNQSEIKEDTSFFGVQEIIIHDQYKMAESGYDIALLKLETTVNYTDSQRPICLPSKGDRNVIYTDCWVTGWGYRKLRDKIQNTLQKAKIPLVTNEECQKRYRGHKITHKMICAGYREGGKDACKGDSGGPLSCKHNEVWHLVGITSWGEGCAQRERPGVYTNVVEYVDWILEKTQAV
human factor XIa, sequence (P03951 19-387 partner limits assumed): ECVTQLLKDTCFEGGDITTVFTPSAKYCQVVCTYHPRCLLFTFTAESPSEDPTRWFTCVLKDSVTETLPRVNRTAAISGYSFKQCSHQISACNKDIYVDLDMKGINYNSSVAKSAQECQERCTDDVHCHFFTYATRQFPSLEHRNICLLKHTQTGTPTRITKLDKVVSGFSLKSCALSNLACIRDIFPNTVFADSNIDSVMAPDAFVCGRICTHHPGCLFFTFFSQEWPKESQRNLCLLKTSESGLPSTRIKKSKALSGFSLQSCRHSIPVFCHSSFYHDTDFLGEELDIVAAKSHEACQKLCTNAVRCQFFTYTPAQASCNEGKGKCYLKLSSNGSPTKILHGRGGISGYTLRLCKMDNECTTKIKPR
T1 sequence (P03952 391-638 limits assumed): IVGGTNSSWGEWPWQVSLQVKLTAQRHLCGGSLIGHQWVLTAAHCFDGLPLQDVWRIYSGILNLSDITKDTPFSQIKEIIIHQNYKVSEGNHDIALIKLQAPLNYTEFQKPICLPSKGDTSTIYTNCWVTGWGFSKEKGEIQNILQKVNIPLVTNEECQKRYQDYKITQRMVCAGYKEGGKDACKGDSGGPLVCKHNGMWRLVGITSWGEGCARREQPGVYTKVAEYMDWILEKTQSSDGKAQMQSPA
T1 sequence (P03952 20-390 partner limits assumed): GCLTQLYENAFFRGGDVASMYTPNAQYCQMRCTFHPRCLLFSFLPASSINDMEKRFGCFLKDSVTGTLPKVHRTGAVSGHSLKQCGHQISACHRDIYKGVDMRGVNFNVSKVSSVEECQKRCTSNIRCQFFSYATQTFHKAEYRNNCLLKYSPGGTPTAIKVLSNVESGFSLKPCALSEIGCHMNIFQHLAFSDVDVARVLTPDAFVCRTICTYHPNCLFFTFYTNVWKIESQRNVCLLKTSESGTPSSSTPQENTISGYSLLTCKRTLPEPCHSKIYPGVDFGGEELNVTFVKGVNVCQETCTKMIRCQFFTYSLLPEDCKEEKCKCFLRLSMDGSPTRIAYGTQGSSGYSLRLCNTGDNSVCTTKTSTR

Row | SMILES | IC50 (human factor XIa) | IC50 (Human plasma kallikrein)
1 | Nc1c(C(=O)N2CCC[C@@]3(C2)OC(=O)Nc2ccc(Cl)c(F)c23)cnn1C(C(F)(F)F)C1(F)CC1 (single isomer, unassigned) [Example 115, (R)-1'-(5-Amino-1-((S or R)-2,2,2-trifluoro-1-(1-fluorocyclopropyl)ethyl)-1H-pyrazole-4-carbonyl)-6-chloro-5-fluorospiro[benzo[d][1,3]oxazine-4,3'-piperidin]-2(1H)-one] | 0.042 µM | 0.0006 µM
2 | Nc1c(C(=O)N2CCC[C@@]3(C2)OC(=O)Nc2ccc(Cl)c(F)c23)cnn1-c1c(Cl)cncc1Cl [Example 102, (R)-1'-(5-Amino-1-(3,5-dichloropyridin-4-y1)-1H-pyrazole-4-carbonyl)-6-chloro-5-fluorospiro[benzo[d][1,3]oxazine-4,3'-piperidin]-2(1H)-one] | 0.012 µM | 0.0038 µM
3 | Cn1c(-c2ccccc2)nnc1-n1ncc(C(=O)N2CCC[C@@]3(C2)OC(=O)Nc2ccc(Cl)c(F)c23)c1N [Example 30, (R)-1'-(5-Amino-1-(4-methyl-5-phenyl-4H-1,2,4-triazol-3-y1)-1H-pyrazole-4-carbonyl)-6-chloro-5-fluorospiro[benzo[d][1,3]oxazine-4,3'-piperidin]-2(1H)-one] | 2.83 µM | 0.0184 µM
4 | CCn1ncc(C(=O)N2CCC[C@@]3(C2)OC(=O)Nc2ccc(Cl)c(F)c23)c1N [Example 25, (R)-1'-(5-Amino-1-ethy1-1H-pyrazole-4-carbonyl)-6-chloro-5-fluorospiro[benzo[d][1,3]oxazine-4,3'-piperidin]-2(1H)-one] | 2 µM | 0.0248 µM
5 | Nc1c(C(=O)N2CCC[C@@]3(C2)OC(=O)Nc2ccc(Cl)c(F)c23)cnn1-c1ccccc1C(F)(F)F [Example 77, (R)-1'-(5-Amino-1-(2-(trifluoromethyl)phenyl)-1H-pyrazole-4-carbonyl)-6-chloro-5-fluorospiro[benzo[d][1,3]oxazine-4,3'-piperidin]-2(1H)-one] | 0.399 µM | 0.0173 µM
6 | CCC(c1ccccc1)n1ncc(C(=O)N2CCC[C@@]3(C2)OC(=O)Nc2ccc(Cl)c(F)c23)c1N (single isomer, unassigned) [Example 117, (R)-1'-(5-Amino-1-((R or S)-1-phenylpropyl)-1H-pyrazole-4-carbonyl)-6-chloro-5-fluorospiro[benzo[d][1,3]oxazine-4,3'-piperidin]-2(1H)-one] | 0.03 µM | 0.0009 µM
7 | Cn1ncc(C(=O)N2CCC[C@@]3(C2)OC(=O)Nc2ccc(Cl)c(F)c23)c1N [Example 109, (R)-1'-(5-Amino-1-methyl-1H-pyrazole-4-carbonyl)-6-chloro-5-fluorospiro[benzo[d][1,3]oxazine-4,3'-piperidin]-2(1H)-one] | > 10 µM | 0.338 µM
8 | CC(C)(n1ncc(C(=O)N2CCC[C@@]3(C2)OC(=O)Nc2ccc(Cl)c(F)c23)c1N)C(F)(F)F [Example 49, (R)-1'-(5-Amino-1-(1,1,1-trifluoro-2-methylpropan-2-y1)-1H-pyrazole-4-carbonyl)-6-chloro-5-fluorospiro[benzo[d][1,3]oxazine-4,3'-piperidin]-2(1H)-one] | 2.93 µM | 0.0169 µM
